In patent US4550186A, “Binuclear copper (II) carboxylates formed from amine-carboxyboranes” (Duke University, priority 1983, dated 1985):

Tests used:
CF1 male mice = test: Acute toxicity (LD50); type: in vivo, mouse; conditions: CF1 mice intraperitoneally, single dose, 7 days
Experimental: The acute toxicity (LD50 values) was determined in CF1 male mice by administering test drugs intraperitoneally from 5-50 mg/kg as a single dose. The number of deaths recorded over 7 days in the group was determined for each dosage.

Appetite / food intake = conditions: in vivo
[1] = test system: Ehrlich ascites carcinoma; test: Ehrlich ascites carcinoma growth in CF1 male mice; type: in vivo, mouse; conditions: for No. of Animals Survived on Day 10: 6 animals; for Ascrit Packed Cell Vol. / Vol(ml) Ascites Fluid: Day 10; for Percent Inhibition: Ehrlich ascites carcinoma growth
Experimental: (§1) CF1 male mice (~30 g) were implanted with 2×10^6 Ehrlich ascites tumor cells, intraperitoneally on Day 0. Compound I was suspended by homogenation in 0.05% polysorbate.80-water and administered intraperitoneally at 10 and 20 mg/kg for 9 days to determine its effectiveness for inhibition of tumor growth. Mice were sacrificed on Day 10, and the ascites fluid was collected from the peritoneal cavity. The volume and ascrit (packed cell volume) were determined for each animal and the percent inhibition of tumor growth was calculated. For the metabolic studies, mice were treated on Days 8 and 9 with 10 mg/kg of Compound I, intraperitoneally. The animal was sacrificed on Day 10 and the ascites fluid harvested. The in vitro metabolic studies were performed at 0.25, 0.50 and 1 mmol final concentration of Compound I.

Ehrlich ascites cells = test: Number of cells in ascites fluid; type: in vivo, mouse
Experimental: as §1

[2] = biological target: T1, phosphoribosyl pyrophosphate amidotransferase (Mus musculus, UniProt Q8CIH9); test: In vivo phosphoribosyl pyrophosphate amidotransferase activity
Experimental: as §1, with “The animal was sacrificed on Day 10 and the ascites fluid harvested. The in vitro metabolic studies were performed at 0.25, 0.50 and 1 mmol final concentration of Compound I.” left out
(§2) Carbamyl phosphate synthetase activity was determined using the reaction medium of Kalman et al [Am. […] Citrulline formed from ornithine was measured at 490 nm by the method of Archibald [J. Biol. Chem., 156, 121 (1944)]. […] The ^14 CO2 generated in 15 min was trapped in 1M KOH and counted. Thymidylate synthetase activity was determined using a post-mitochondrial supernatant (9000 g×10 min) and 5 μCi of 5-^3 H-deoxyuridine monophosphate (14 Ci/mmol) according to the method of Kampf et al [ J. Med. Chem., 19, 903 (1976)]. ^14 C-Formate incorporation into purines was determined by the method of Spassova et al [Biochem. Pharmacol., 25, 923 (1976)] using 0.5 μCi of ^14 C-formic acid (52.0 mCi/mmol). […] The Rf value for xanthine monophosphate was scraped and counted. […]

[3] = biological target: T1, phosphoribosyl pyrophosphate amidotransferase; test: In vitro phosphoribosyl pyrophosphate amidotransferase activity; type: biochemical; conditions: read-out: ID50, Phosphoribosyl pyrophosphate amidotransferase activity
Experimental: as §1, with “The animal was sacrificed on Day 10 and the ascites fluid harvested. The in vitro metabolic studies were performed at 0.25, 0.50 and 1 mmol final concentration of Compound I.” left out
as §2

[4] = biological target: T2, orotidine monophosphate decarboxylase (Mus musculus, UniProt P13439); test: In vitro orotidine monophosphate decarboxylase activity; type: biochemical; conditions: 0.25 to 1.0 mM
T2 construct: OMP decarboxylase domain of UMP synthase
Experimental: as §1, with “The animal was sacrificed on Day 10 and the ascites fluid harvested. The in vitro metabolic studies were performed at 0.25, 0.50 and 1 mmol final concentration of Compound I.” left out
as §2

[5] = test system: inosinic acid dehydrogenase; test: In vitro inosinic acid dehydrogenase activity; type: biochemical, mouse; conditions: 0.25 to 1.0 mM
Experimental: as §1, with “The animal was sacrificed on Day 10 and the ascites fluid harvested. The in vitro metabolic studies were performed at 0.25, 0.50 and 1 mmol final concentration of Compound I.” left out
as §2

[6] = biological target: T3, messenger ribonucleic acid polymerase (Mus musculus, UniProt P08775+Q8CFI7); test: In vitro messenger ribonucleic acid polymerase activity; type: biochemical; conditions: 0.25 to 1.0 mM
T3 construct: enzymes isolated from nuclei; endogenous in cells; host or cells: Ehrlich ascites tumor cell nuclei, ammonium sulfate fraction
Experimental: as §1
In vitro and in vivo nuclear deoxyribonucleic acid polymerase activity was determined on isolated Ehrlich ascites cell nuclei. The incubation was that described by Sawada et al [Can. Res., 34, 3341 (1974)] except that [methyl-^3 H] deoxythymidine triphosphate (82.4 Ci/mmol) was used. The acid insoluble nucleic acid was collected on GF/F filters and counted. Nuclear ribonucleic acid polymerase activities were determined on enzymes isolated from nuclei. […] The acid insoluble ribonucleic acid was collected on nitrocellulose filters and counted.

T1 sequence (Q8CIH9 12-517): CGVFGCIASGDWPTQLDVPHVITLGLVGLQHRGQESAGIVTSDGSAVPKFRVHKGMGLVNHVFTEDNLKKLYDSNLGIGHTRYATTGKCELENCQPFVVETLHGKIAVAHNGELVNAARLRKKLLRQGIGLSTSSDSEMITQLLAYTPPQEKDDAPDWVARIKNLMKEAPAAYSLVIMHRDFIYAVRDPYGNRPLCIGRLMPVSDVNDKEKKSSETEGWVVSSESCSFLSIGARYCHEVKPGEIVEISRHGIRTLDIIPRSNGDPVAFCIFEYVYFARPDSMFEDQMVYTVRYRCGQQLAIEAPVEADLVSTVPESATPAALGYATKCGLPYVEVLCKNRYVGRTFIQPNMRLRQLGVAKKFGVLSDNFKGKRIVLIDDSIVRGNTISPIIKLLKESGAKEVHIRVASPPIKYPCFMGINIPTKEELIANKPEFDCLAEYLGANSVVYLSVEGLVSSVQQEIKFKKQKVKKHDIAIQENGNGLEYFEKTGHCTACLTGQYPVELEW
T2 sequence (P13439 whole entry, the tested form may be a part): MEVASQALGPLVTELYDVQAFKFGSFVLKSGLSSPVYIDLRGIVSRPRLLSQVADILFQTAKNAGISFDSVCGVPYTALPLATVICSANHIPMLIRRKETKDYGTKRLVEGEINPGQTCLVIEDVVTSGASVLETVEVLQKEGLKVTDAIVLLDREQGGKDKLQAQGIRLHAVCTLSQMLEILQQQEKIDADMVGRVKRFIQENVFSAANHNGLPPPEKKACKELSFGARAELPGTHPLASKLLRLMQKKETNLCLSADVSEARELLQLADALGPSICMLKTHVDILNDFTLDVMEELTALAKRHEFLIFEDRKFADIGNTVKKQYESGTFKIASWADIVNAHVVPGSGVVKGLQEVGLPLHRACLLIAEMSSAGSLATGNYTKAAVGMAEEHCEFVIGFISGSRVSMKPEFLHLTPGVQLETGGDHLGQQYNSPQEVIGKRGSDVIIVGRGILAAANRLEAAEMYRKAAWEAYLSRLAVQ

{Cu[(CH3)3 N.BH2 CO2 ]2.(CH3)3 N.BH2 COOH} [Compound I]
LD50 (CF1 male mice): 39.2 mg/kg | Appetite of the animal (Appetite / food intake): reduced | No. of Animals Survived on Day 10 ([1]; 10 mg/kg/day i.p.): 5 | Ascrit Packed Cell Vol. ([1]; 10 mg/kg/day i.p.): 18.5 | Vol(ml) Ascites Fluid ([1]; 10 mg/kg/day i.p.): 0.04 mL | Percent Inhibition ([1]; 10 mg/kg/day i.p.): 99.7% | No. of Animals Survived on Day 10 ([1]; 20 mg/kg/day i.p.): 6 | Ascrit Packed Cell Vol. ([1]; 20 mg/kg/day i.p.): 34.0 | Vol(ml) Ascites Fluid ([1]; 20 mg/kg/day i.p.): 0.32 mL | Percent Inhibition ([1]; 20 mg/kg/day i.p.): 96.2% | number of cells in the ascites fluid (Ehrlich ascites cells; after drug administration for two days (control 226×10^6 /ml)): 1.02e+08 mL⁻¹ | Number of cells × 10^6 /ml ascites fluid (Ehrlich ascites cells; in vivo, 10 mg/kg/day I.P. on Days 8 and 9): 45 ± 4 % Control | Phosphoribosyl pyrophosphate amidotransferase activity ([2]; 10 mg/kg/day I.P. on Days 8 and 9): 41 ± 3 % Control | Phosphoribosyl pyrophosphate amido transferase activity reduced ([2]; drug administration for 2 days): 59% | IC50 [3]: 523 µM | orotidine monophosphate decarboxylase inhibition [4]: not inhibited | inosinic acid dehydrogenase inhibition [5]: not inhibited | messenger ribonucleic acid polymerase inhibition [6]: not inhibited
